Laboratory results: patent US20240182481A1 (Tango Therapeutics, Inc., priority 2021, published 2024)

Legend:
monoubiquitinated PCNA = experiment: AlphaLISA assay measuring monoubiquitinated PCNA in MDA-MB-436; assay type: cell-based; details: Homo sapiens, read-out: Alpha LISA IC50
Description: Table 1 also indicates IC50 values for exemplary compounds in an AlphaLISA assay measuring monoubiquitinated PCNA in a BRCA1 mutant cell line (MDA-MB-436; column 7).

[1] = tested on: HCC1954 (BRCA1 WT) cell line; experiment: Viability assay in BRCA1 WT cell line HCC1954; assay type: cell-based; details: Homo sapiens, read-out: HCC 1954 IC50 rel IC50
Description: (§1) Table 1 also indicates IC50 values in a viability assay for a non-isogenic pair of BRCA1 mutant (column 5—MDA-MB-436) and BRCA1 WT (column 6—HCC1954) cell lines. These values indicate the effect of treatment with compound on cell survival.

USP1-UAF1 = USP1-UAF1 (Homo sapiens, UniProt O94782); experiment: Ubiquitin Rhodamine assay for USP1-UAF1 activity; assay type: biochemical
Experimental: Certain compounds of the disclosure were assessed for USP1-UAF1 activity in a Ubiquitin Rhodamine assay as described in Example 135.

[2] = tested on: MDA-MB-436 (BRCA1 mutant) cell line; experiment: Viability assay in BRCA1 mutant cell line MDA-MB-436; assay type: cell-based; details: Homo sapiens, MDA-MB-436, viability, BRCA1 mutant MDA-MB-436; read-out: MDA-MB-436 rel IC50
Description: as §1

USP1-UAF1, sequence (O94782 whole entry): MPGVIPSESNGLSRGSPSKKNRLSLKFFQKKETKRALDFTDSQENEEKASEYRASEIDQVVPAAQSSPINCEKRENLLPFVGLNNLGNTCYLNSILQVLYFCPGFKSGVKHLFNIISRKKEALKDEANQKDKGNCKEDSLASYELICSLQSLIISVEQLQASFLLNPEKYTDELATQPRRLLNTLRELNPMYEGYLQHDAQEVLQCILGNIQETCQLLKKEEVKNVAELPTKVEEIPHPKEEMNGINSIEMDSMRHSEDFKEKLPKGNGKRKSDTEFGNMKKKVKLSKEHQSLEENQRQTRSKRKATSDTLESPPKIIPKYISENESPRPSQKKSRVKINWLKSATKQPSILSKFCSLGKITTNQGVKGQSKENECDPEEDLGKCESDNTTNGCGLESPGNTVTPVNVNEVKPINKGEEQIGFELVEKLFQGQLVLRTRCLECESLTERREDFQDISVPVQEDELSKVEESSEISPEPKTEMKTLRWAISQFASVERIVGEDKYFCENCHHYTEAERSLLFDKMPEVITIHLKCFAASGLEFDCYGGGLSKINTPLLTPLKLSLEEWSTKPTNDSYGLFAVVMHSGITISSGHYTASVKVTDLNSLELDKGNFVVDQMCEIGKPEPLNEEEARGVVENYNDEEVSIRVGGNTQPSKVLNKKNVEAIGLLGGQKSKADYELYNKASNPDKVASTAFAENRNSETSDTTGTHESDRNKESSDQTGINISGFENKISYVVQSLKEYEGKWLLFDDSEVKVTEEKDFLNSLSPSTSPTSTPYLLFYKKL
USP1-UAF1, sequence (Q8TAF3 whole entry partner): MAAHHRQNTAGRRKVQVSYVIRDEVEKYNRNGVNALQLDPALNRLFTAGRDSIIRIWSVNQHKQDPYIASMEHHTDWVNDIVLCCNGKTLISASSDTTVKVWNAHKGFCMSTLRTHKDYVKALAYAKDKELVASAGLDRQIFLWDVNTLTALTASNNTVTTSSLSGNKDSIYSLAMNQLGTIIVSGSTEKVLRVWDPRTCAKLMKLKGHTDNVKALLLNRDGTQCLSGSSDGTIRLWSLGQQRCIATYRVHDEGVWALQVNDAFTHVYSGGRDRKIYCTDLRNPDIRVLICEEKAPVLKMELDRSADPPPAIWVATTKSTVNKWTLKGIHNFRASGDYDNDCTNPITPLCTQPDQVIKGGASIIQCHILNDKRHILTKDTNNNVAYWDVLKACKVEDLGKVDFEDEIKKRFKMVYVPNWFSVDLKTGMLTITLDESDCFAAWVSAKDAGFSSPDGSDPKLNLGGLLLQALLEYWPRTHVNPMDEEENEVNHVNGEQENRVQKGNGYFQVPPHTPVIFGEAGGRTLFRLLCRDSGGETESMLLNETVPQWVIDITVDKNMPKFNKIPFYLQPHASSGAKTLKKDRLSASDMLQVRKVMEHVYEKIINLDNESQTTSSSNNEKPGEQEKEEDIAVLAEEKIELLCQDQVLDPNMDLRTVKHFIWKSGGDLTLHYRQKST

COc1ncnc(C2CC2)c1-c1ncc2[nH]cc(Cc3ccc(-n4nc(C(F)(F)F)cc4C)c(F)c3)c2n1 [Compound 88, 2-(4-cyclopropyl-6-methoxy-pyrimidin-5-yl)-7-[[3-fluoro-4-[5-methyl-3-(trifluoromethyl)pyrazol-1-yl]phenyl]methyl]-5H-pyrrolo[3,2-d]pyrimidine]
IC50 (monoubiquitinated PCNA): < 100 nM | IC50 [1]: ≥ 10000 nM | IC50 (USP1-UAF1): < 30 nM | IC50 [2]: < 100 nM

CCn1cc(C(F)(F)F)nc1-c1ccc(Cc2c3nc(-c4c(OC)ncnc4C4CC4)ncc3nn2C)cc1 [Compound 139, 5-(4-cyclopropyl-6-methoxypyrimidin-5-yl)-3-(4-(1-ethyl-4-(trifluoromethyl)-1H-imidazol-2-yl)benzyl)-2-methyl-2H-pyrazolo[4,3-d]pyrimidine]
IC50 (monoubiquitinated PCNA): < 100 nM | IC50 [1]: ≥ 10000 nM | IC50 (USP1-UAF1): 30 to 100 nM | IC50 [2]: < 100 nM

COc1ncnc(C2CC2)c1-c1nc(F)c2[nH]cc(Cc3ccc(-c4nc(C(F)(F)F)cn4C)cc3)c2n1 [Compound 110]
IC50 (monoubiquitinated PCNA): 250 to 10000 nM | IC50 [1]: ≥ 10000 nM | IC50 (USP1-UAF1): < 30 nM | IC50 [2]: 100 to 250 nM

COc1ncnc(OC)c1-c1ncc2[nH]cc(Cc3ccc(-c4nc(C(F)(F)F)cn4C)cc3)c2n1 [Compound 100]
IC50 (monoubiquitinated PCNA): < 100 nM | IC50 [1]: ≥ 10000 nM | IC50 (USP1-UAF1): 30 to 100 nM | IC50 [2]: 100 to 250 nM

COc1ncnc(C2CC2)c1-c1ncc2[nH]cc(C(O)(c3ccc(-c4nc(C(F)(F)F)cn4C)cc3)C(C)C)c2n1 (stereo not shown) [Compound 199]
IC50 (monoubiquitinated PCNA): 100 to 250 nM | IC50 [1]: 250 to 10000 nM | IC50 (USP1-UAF1): 100 to 10000 nM | IC50 [2]: 100 to 250 nM

CC(C)c1ccccc1-c1ncc2c(n1)c(Cc1ccc(-c3nc(C(F)(F)F)cn3C)cc1)cn2CCO [Compound 57, 2-[2-(2-isopropylphenyl)-7-[[4-[1-methyl-4-(trifluoromethyl)imidazol-2-yl]phenyl]methyl]pyrrolo[3,2-d]pyrimidin-5-yl]ethanol]
IC50 (monoubiquitinated PCNA): 100 to 250 nM | IC50 [1]: ≥ 10000 nM | IC50 (USP1-UAF1): < 30 nM | IC50 [2]: 250 to 10000 nM

COc1ncnc(C2CC2)c1-c1cc2c(Cc3ccc(-c4nc(C(F)(F)F)cn4C)cc3)n[nH]c2cn1 [Compound 177, 5-(4-cyclopropyl-6-methoxypyrimidin-5-yl)-3-(4-(1-methyl-4-(trifluoromethyl)-1H-imidazol-2-yl)benzyl)-1H-pyrazolo[3,4-c]pyridine]
IC50 (monoubiquitinated PCNA): < 100 nM | IC50 [1]: ≥ 10000 nM | IC50 (USP1-UAF1): < 30 nM | IC50 [2]: < 100 nM

[2H]C([2H])([2H])n1cc(C(F)(F)F)nc1-c1ccc(Cc2n[nH]c3cnc(-c4c(OC)ncnc4C4CC4)nc23)cc1 [Compound 97, 5-(4-cyclopropyl-6-methoxy-pyrimidin-5-yl)-3-[[4-[1-(trideuteriomethyl)-4-(trifluoromethyl)imidazol-2-yl]phenyl]methyl]-1H-pyrazolo[4,3-d]pyrimidine]
IC50 (monoubiquitinated PCNA): < 100 nM | IC50 [1]: ≥ 10000 nM | IC50 (USP1-UAF1): < 30 nM | IC50 [2]: < 100 nM

COc1ncnc(C2CC2)c1-c1ncc2c(n1)c(Cc1ccc(-c3nc(C(F)(F)F)cn3C)cc1)nn2C(C)C (single isomer, unassigned) [Compound 98, 5-(4-cyclopropyl-6-methoxy-pyrimidin-5-yl)-1-isopropyl-3-[[4-[1-methyl-4-(trifluoromethyl)imidazol-2-yl]phenyl]methyl]pyrazolo[4,3-d]pyrimidine]
IC50 (monoubiquitinated PCNA): < 100 nM | IC50 [1]: ≥ 10000 nM | IC50 (USP1-UAF1): 30 to 100 nM | IC50 [2]: < 100 nM

Cn1cc(C(F)(F)F)nc1-c1ccc(C(O)c2c[nH]c3cnc(-c4c(OC(F)F)ncnc4C4CC4)nc23)cc1 (single isomer, unassigned) [Compound 103]
IC50 (monoubiquitinated PCNA): < 100 nM | IC50 [1]: ≥ 10000 nM | IC50 (USP1-UAF1): 30 to 100 nM | IC50 [2]: < 100 nM

Cn1cc(C(F)(F)F)nc1-c1ccc([C@@](C)(O)c2c[nH]c3cnc(-c4cccnc4OCC(F)(F)F)nc23)cc1 (single isomer, unassigned) [Compound 74]
IC50 (monoubiquitinated PCNA): 100 to 250 nM | IC50 [1]: 250 to 10000 nM | IC50 (USP1-UAF1): < 30 nM | IC50 [2]: 250 to 10000 nM

COc1ncnc(C2CC2)c1-c1ncc2[nH]cc(Cc3ccc(-c4nc(C(F)(F)F)cn4C)cc3F)c2n1 [Compound 120, 2-(4-cyclopropyl-6-methoxy-pyrimidin-5-yl)-7-[[2-fluoro-4-[1-methyl-4-(trifluoromethyl)imidazol-2-yl]phenyl]methyl]-5H-pyrrolo[3,2-d]pyrimidine]
IC50 (monoubiquitinated PCNA): < 100 nM | IC50 [1]: ≥ 10000 nM | IC50 (USP1-UAF1): < 30 nM | IC50 [2]: < 100 nM

CC(C)c1ccccc1-c1ncc2[nH]cc(C(O)c3ccc(-c4nc(C(F)(F)F)cn4C)cc3)c2n1 (stereo not shown) [Compound 1, [2-(2-isopropylphenyl)-5H-pyrrolo[3,2-d]pyrimidin-7-yl]-[4-[1-methyl-4-(trifluoromethyl)imidazol-2-yl]phenyl]methanol]
IC50 (monoubiquitinated PCNA): < 100 nM | IC50 [1]: ≥ 10000 nM | IC50 (USP1-UAF1): 30 to 100 nM | IC50 [2]: < 100 nM

COc1ncnc(C2CC2)c1-c1ncc2[nH]c(C)c(C(O)c3ccc(-c4nc(C(F)(F)F)cn4C)cc3)c2n1 (stereo not shown) [Compound 207, [2-(4-cyclopropyl-6-methoxy-pyrimidin-5-yl)-6-methyl-5H-pyrrolo[3,2-d]pyrimidin-7-yl]-[4-[1-methyl-4-(trifluoromethyl)imidazol-2-yl]phenyl]methanol]
IC50 (monoubiquitinated PCNA): 250 to 10000 nM | IC50 [1]: ≥ 10000 nM | IC50 (USP1-UAF1): 100 to 10000 nM | IC50 [2]: 250 to 10000 nM

CCn1cc(C(F)(F)F)nc1-c1ccc(Cc2c[nH]c3cnc(-c4c(OC)ncnc4C4CC4)nc23)cc1 [Compound 15]
IC50 (monoubiquitinated PCNA): 100 to 250 nM | IC50 [1]: ≥ 10000 nM | IC50 (USP1-UAF1): < 30 nM | IC50 [2]: < 100 nM

CC(C)c1ccccc1-c1ncc2[nH]cc([C@@H](C)c3ccc(-c4nc(C(F)(F)F)cn4C)cc3)c2n1 (single isomer, unassigned) [Compound 82]
IC50 (monoubiquitinated PCNA): < 100 nM | IC50 [1]: 250 to 10000 nM | IC50 (USP1-UAF1): < 30 nM | IC50 [2]: < 100 nM

COc1ncnc(C2CC2)c1-c1nc(C(F)(F)F)c2[nH]nc(Cc3ccc(-c4nc(C(F)(F)F)cn4C)cc3)c2n1 [Compound 114, 5-(4-cyclopropyl-6-methoxy-pyrimidin-5-yl)-3-[[4-[1-methyl-4-(trifluoromethyl)imidazol-2-yl]phenyl]methyl]-7-(trifluoromethyl)-1H-pyrazolo[4,3-d]pyrimidine]
IC50 (monoubiquitinated PCNA): < 100 nM | IC50 [1]: ≥ 10000 nM | IC50 (USP1-UAF1): < 30 nM | IC50 [2]: < 100 nM

COc1ncnc(C2CC2)c1-c1ncc2[nH]cc(Cc3cc(F)c(-n4nc(C(F)(F)F)cc4C)c(F)c3)c2n1 [Compound 162, 2-(4-cyclopropyl-6-methoxy-pyrimidin-5-yl)-7-[[3,5-difluoro-4-[5-methyl-3-(trifluoromethyl)pyrazol-1-yl]phenyl]methyl]-5H-pyrrolo[3,2-d]pyrimidine]
IC50 (monoubiquitinated PCNA): < 100 nM | IC50 [1]: ≥ 10000 nM | IC50 (USP1-UAF1): < 30 nM | IC50 [2]: < 100 nM

COc1ncnc(C2CC2)c1-c1ncc2c(n1)c(Cc1ccc(-c3nc(C(F)(F)F)cn3C)cc1)cn2S(C)(=O)=O [Compound 146, 2-(4-cyclopropyl-6-methoxy-pyrimidin-5-yl)-5-methylsulfonyl-7-[[4-[1-methyl-4-(trifluoromethyl)imidazol-2-yl]phenyl]methyl]pyrrolo[3,2-d]pyrimidine]
IC50 (monoubiquitinated PCNA): 100 to 250 nM | IC50 [1]: ≥ 10000 nM | IC50 (USP1-UAF1): < 30 nM | IC50 [2]: < 100 nM
